Values of other authors, collected in patent US12295935B2, “Method for therapeutic treatment of rosacea” (Sol-Gel Technologies Ltd., priority 2019, dated 2025).

Test system: rosacea
Conditions: BPO as sole active agent

## O=C(OOC(=O)c1ccccc1)c1ccccc1 [BPO, Benzoyl peroxide]
  response of lesions: unresponsive
